Measured values taken from ChEMBL document CHEMBL4507260 (2021).

Assays:
Settings in all cases: Compound concentration 1000.0 nM
[1] = target: Non-receptor tyrosine-protein kinase TYK2 (Homo sapiens) (UniProt P29597)
[2] = target: RAF proto-oncogene serine/threonine-protein kinase (Homo sapiens) (UniProt P04049)
[3] = target: Tyrosine-protein kinase Lck (Homo sapiens) (UniProt P06239)
[4] = target: Cyclin-dependent kinase 19 (Homo sapiens) (UniProt Q9BWU1)
[5] = tested on: Mast/stem cell growth factor receptor Kit (Homo sapiens), P10721 [V559D]
[6] = target: Mitogen-activated protein kinase kinase kinase kinase 4 (Homo sapiens) (UniProt O95819)
[7] = target: Serine/threonine-protein kinase 24 (Homo sapiens) (UniProt Q9Y6E0)
[8] = target: Serine/threonine-protein kinase Sgk1 (Homo sapiens) (UniProt O00141)
[9] = target: Citron Rho-interacting kinase (Homo sapiens) (UniProt O14578)
[10] = target: Dual specificity tyrosine-phosphorylation-regulated kinase 1A (Homo sapiens) (UniProt Q13627)
[11] = target: Serine/threonine-protein kinase PLK4 (Homo sapiens) (UniProt O00444)
[12] = target: Cyclin-dependent kinase-like 5 (Homo sapiens) (UniProt O76039)
[13] = target: Casein kinase II subunit alpha (Homo sapiens) (UniProt P68400)
[14] = target: Serine/threonine-protein kinase PLK3 (Homo sapiens) (UniProt Q9H4B4)
[15] = target: Serine/threonine-protein kinase PAK 4 (Homo sapiens) (UniProt O96013)
[16] = target: cAMP-dependent protein kinase catalytic subunit PRKX (Homo sapiens) (UniProt P51817)
[17] = target: Bone morphogenetic protein receptor type-2 (Homo sapiens) (UniProt Q13873)
[18] = target: Dual specificity mitogen-activated protein kinase kinase 6 (Homo sapiens) (UniProt P52564)
[19] = target: Mitogen-activated protein kinase kinase kinase kinase 1 (Homo sapiens) (UniProt Q92918)
[20] = target: Rhodopsin kinase GRK1 (Homo sapiens) (UniProt Q15835)
[21] = target: Cyclin-dependent kinase 3 (Homo sapiens) (UniProt Q00526)
[22] = target: Inhibitor of nuclear factor kappa-B kinase subunit alpha (Homo sapiens) (UniProt O15111)
[23] = target: Interferon-induced, double-stranded RNA-activated protein kinase (Homo sapiens) (UniProt P19525)
[24] = target: Phosphatidylinositol 4,5-bisphosphate 3-kinase catalytic subunit beta isoform (Homo sapiens) (UniProt P42338)
[25] = target: Mitogen-activated protein kinase kinase kinase 19 (Homo sapiens) (UniProt Q56UN5)
[26] = target: Ephrin type-A receptor 8 (Homo sapiens) (UniProt P29322)
[27] = target: Mitogen-activated protein kinase kinase kinase 14 (Homo sapiens) (UniProt Q99558)
[28] = target: Serine/threonine-protein kinase 38 (Homo sapiens) (UniProt Q15208)
[29] = target: SNF-related serine/threonine-protein kinase (Homo sapiens) (UniProt Q9NRH2)
[30] = target: Casein kinase I isoform gamma-1 (Homo sapiens) (UniProt Q9HCP0)
[31] = target: Myosin light chain kinase, smooth muscle (Homo sapiens) (UniProt Q15746)
[32] = target: Death-associated protein kinase 3 (Homo sapiens) (UniProt O43293)
[33] = target: RAC-gamma serine/threonine-protein kinase (Homo sapiens) (UniProt Q9Y243)
[34] = target: Casein kinase I isoform gamma-2 (Homo sapiens) (UniProt P78368)
[35] = target: Cyclin-dependent kinase 15 (Homo sapiens) (UniProt Q96Q40)
[36] = tested on: Epidermal growth factor receptor (Homo sapiens), P00533 [UNDEFINED MUTATION]
[37] = target: Wee1-like protein kinase 2 (Homo sapiens) (UniProt P0C1S8)
[38] = target: Interleukin-1 receptor-associated kinase 3 (Homo sapiens) (UniProt Q9Y616)
[39] = target: Serine/threonine-protein kinase SIK3 (Homo sapiens) (UniProt Q9Y2K2)
[40] = target: Myosin light chain kinase (Homo sapiens) (UniProt Q32MK0)
[41] = target: Serine/threonine-protein kinase MARK2 (Homo sapiens) (UniProt Q7KZI7)
[42] = target: Receptor-interacting serine/threonine-protein kinase 4 (Homo sapiens) (UniProt P57078)
[43] = tested on: Receptor-type tyrosine-protein kinase FLT3 (Homo sapiens), P36888 [D835V]
[44] = target: Dual specificity tyrosine-phosphorylation-regulated kinase 1B (Homo sapiens) (UniProt Q9Y463)
[45] = target: Testis-specific serine/threonine-protein kinase 1 (Homo sapiens) (UniProt Q9BXA7)

Measured: residual activity

Chain of Mitogen-activated protein kinase kinase kinase 19 (Homo sapiens) (Q56UN5 whole entry): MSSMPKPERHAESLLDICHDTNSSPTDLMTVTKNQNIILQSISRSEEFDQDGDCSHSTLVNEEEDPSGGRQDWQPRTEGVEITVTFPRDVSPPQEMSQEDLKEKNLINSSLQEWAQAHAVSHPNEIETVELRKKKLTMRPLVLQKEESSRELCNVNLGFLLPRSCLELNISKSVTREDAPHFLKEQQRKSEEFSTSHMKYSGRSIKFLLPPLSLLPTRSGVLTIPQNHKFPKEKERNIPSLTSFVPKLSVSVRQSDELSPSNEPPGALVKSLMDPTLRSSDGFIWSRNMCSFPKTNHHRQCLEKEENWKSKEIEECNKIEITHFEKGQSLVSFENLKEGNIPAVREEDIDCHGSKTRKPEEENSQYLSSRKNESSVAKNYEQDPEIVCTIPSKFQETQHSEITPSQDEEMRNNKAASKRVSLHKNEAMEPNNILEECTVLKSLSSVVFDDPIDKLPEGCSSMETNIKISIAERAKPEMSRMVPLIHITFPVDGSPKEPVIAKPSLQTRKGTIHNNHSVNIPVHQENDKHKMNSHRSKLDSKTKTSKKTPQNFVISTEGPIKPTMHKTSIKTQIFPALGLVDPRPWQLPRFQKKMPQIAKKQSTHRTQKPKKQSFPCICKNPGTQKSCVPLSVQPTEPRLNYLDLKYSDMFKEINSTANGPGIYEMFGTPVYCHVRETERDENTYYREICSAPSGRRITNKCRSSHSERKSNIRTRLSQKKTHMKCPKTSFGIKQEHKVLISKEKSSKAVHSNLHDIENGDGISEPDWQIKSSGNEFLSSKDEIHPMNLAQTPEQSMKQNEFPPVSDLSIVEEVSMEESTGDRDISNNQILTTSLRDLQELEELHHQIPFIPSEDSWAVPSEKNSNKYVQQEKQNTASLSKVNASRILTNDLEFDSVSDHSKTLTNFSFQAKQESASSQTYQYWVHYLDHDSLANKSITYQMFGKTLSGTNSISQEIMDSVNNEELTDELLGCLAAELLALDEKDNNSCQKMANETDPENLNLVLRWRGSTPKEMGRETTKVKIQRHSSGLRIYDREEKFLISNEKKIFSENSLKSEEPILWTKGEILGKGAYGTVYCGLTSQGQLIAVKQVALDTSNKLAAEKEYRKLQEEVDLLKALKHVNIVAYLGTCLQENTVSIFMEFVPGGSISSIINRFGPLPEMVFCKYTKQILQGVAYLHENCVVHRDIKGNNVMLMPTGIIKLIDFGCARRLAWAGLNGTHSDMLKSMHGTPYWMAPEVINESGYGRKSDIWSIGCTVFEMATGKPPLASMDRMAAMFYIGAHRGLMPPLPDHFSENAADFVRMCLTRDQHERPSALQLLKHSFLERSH
Chain of Casein kinase II subunit alpha (Homo sapiens) (P68400 whole entry, looked up): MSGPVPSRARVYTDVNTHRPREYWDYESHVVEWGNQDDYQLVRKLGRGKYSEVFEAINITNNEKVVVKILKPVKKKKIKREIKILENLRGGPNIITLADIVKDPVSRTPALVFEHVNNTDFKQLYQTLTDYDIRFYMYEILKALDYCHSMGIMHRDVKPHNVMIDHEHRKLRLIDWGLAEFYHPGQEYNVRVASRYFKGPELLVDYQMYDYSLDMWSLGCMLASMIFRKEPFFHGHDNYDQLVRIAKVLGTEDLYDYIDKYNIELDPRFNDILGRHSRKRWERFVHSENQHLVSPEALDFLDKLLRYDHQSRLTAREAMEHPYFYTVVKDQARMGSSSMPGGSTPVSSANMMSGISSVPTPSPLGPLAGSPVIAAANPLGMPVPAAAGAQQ
Chain of Dual specificity tyrosine-phosphorylation-regulated kinase 1B (Homo sapiens) (Q9Y463 whole entry, looked up): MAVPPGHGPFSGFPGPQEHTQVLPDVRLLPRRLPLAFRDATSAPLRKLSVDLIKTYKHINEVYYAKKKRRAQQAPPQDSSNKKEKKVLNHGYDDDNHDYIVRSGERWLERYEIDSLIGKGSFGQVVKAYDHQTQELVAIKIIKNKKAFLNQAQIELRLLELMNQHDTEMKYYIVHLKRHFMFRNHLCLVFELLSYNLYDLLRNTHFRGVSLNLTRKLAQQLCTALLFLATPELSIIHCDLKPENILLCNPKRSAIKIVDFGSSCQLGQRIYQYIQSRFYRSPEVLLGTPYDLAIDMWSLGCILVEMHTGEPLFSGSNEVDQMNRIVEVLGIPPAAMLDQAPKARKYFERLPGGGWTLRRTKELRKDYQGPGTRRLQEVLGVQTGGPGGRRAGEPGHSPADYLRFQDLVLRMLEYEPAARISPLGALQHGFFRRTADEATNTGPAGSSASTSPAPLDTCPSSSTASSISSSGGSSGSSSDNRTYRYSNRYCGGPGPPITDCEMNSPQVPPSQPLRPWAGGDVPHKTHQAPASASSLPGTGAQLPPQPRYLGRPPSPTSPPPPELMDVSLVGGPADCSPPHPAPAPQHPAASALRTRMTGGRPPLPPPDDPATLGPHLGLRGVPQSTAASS
Chain of Interferon-induced, double-stranded RNA-activated protein kinase (Homo sapiens) (P19525 whole entry, canonical isoform): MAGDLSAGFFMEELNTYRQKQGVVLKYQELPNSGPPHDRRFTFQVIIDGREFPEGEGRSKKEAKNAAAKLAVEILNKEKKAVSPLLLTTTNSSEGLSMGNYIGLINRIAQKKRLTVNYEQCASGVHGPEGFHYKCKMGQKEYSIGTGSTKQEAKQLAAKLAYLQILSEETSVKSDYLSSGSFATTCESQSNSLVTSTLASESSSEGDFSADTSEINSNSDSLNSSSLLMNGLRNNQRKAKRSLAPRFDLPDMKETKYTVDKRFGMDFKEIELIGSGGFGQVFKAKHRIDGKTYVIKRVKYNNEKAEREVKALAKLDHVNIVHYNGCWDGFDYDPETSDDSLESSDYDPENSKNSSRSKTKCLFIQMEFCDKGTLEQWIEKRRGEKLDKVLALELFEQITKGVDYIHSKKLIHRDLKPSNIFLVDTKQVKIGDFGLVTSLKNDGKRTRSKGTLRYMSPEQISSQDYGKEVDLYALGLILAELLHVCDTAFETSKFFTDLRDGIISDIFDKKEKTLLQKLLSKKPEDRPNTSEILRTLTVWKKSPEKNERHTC
Chain of Ephrin type-A receptor 8 (Homo sapiens) (P29322 whole entry): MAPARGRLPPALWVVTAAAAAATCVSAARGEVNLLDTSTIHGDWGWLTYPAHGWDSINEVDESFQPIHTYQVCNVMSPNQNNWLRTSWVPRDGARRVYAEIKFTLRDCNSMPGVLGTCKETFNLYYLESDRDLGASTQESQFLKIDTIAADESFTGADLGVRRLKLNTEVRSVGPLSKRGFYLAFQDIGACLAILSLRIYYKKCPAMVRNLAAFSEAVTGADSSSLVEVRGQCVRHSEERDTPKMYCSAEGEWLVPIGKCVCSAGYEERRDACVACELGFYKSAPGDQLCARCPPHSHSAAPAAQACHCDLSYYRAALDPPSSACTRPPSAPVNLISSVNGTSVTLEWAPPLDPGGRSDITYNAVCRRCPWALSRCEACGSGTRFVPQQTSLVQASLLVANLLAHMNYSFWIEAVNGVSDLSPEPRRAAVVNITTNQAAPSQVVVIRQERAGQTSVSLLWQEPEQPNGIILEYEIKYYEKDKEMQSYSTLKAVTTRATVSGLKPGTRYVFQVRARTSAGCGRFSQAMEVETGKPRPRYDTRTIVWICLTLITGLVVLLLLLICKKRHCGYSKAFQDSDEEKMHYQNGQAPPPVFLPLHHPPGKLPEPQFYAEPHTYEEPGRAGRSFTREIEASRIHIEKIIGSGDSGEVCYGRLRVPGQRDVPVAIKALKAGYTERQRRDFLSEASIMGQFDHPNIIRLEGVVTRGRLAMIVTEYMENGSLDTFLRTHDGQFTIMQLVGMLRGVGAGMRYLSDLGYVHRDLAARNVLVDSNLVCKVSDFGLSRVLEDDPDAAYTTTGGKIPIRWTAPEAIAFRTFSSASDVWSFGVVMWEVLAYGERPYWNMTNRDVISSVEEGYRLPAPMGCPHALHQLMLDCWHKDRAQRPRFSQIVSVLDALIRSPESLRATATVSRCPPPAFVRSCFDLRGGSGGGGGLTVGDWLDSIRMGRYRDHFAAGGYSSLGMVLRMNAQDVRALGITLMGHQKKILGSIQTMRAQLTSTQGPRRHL
Chain of Bone morphogenetic protein receptor type-2 (Homo sapiens) (Q13873 whole entry): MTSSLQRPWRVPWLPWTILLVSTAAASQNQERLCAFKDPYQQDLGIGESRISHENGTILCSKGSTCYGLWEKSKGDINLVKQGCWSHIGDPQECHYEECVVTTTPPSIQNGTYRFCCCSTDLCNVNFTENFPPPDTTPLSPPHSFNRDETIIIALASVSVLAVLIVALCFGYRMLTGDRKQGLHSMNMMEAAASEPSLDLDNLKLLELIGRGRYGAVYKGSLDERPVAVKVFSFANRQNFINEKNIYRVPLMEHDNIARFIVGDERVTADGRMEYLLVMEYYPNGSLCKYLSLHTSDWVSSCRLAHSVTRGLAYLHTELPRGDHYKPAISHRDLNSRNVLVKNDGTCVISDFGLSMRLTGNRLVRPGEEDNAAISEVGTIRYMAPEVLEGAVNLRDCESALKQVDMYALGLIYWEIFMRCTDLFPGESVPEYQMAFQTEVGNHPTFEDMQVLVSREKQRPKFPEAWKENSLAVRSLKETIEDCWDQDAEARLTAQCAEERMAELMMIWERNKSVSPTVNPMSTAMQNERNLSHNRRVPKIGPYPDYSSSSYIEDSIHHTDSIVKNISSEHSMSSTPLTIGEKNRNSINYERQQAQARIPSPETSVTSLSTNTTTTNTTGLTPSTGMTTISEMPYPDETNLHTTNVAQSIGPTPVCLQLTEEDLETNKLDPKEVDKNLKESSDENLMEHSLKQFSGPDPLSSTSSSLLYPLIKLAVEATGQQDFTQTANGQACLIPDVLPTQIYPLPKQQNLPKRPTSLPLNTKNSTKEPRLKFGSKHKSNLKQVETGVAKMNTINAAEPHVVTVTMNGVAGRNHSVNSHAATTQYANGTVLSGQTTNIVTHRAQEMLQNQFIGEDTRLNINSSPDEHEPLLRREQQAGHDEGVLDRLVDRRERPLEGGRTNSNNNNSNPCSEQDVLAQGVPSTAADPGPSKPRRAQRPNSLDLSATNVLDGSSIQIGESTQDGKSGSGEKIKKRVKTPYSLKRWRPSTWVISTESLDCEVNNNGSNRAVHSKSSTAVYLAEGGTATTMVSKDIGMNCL

c1ccc(N2CCN(Cc3nc4ccccc4[nH]3)CC2)nc1 [ABT-724]
inactive: [1] 100% | [2] 100% | [3] 100% | [4] 87% | [5] 100% | [6] 100% | [7] 100% | [8] 100% | [9] 88% | [10] 100% | [11] 99% | [12] 100% | [13] 97% | [14] 100% | [15] 93% | [16] 100% | [17] 100% | [18] 100% | [19] 100% | [20] 92% | [21] 100% | [22] 100% | [23] 100% | [24] 100% | [25] 100% | [26] 100% | [27] 94% | [28] 89% | [29] 100% | [30] 100% | [31] 80% | [32] 91% | [33] 100% | [34] 100% | [35] 95% | [36] 90% | [37] 100% | [38] 100% | [39] 91% | [40] 100% | [41] 100% | [42] 100% | [43] 88% | [44] 100% | [45] 100%

CSc1cccnc1N1CCN(Cc2nc3ccccc3[nH]2)CC1 [A-769]
inactive: [1] 100% | [2] 91% | [3] 100% | [4] 96% | [5] 96% | [6] 95% | [7] 100% | [8] 82% | [9] 100% | [10] 79% | [11] 84% | [12] 76% | [13] 81% | [14] 80% | [15] 100% | [16] 100% | [17] 80% | [18] 100% | [19] 100% | [20] 100% | [21] 100% | [22] 98% | [23] 100% | [24] 74% | [25] 72% | [26] 95% | [27] 100% | [28] 88% | [29] 100% | [30] 100% | [31] 94% | [32] 100% | [33] 92% | [34] 99% | [35] 100% | [36] 100% | [37] 100% | [38] 94% | [39] 100% | [40] 100% | [41] 100% | [42] 66% | [43] 84% | [44] 91% | [45] 100%
